Results from US7759355B2, “Adenosine A2A receptor antagonists for treating restless legs syndrome or nocturnal myoclonus” (Kyowa Hakko Kirin Co., Ltd., priority 2002, dated 2010).

Tests used:
[1] = tested on: patients with advanced Parkinson's disease; animal models; settings: animal models and early Phase II studies in patients with advanced Parkinson's disease; cited from earlier work
[2] = tested on: patients with moderate to severe RLS; experiment: Human clinical trial, RLS treatment with an A2A antagonist (IRLSRS total score and total PLMS index by polysomnography); format: in vivo; settings: 80 mg once a day for 6 weeks
Protocol: In order to assess the efficacy of a representative A2A antagonist in treating RLS, a clinical trial was initiated and conducted in accordance with standard procedures. Briefly, the total score in International RLS Rating Scale (IRLSRS) and total PLMS index (polysomnography; PLMS index represents the number of periodic limb movements per hour of sleep) of the patients were measured to evaluate the efficacy of Compound A in RLS [Understanding and Diagnosing Restless Legs Syndrome (2003), Restless Legs Syndrome Foundation, 819 Second Street, SW Rochester, Minn. 55902].
Scoring for IRLSRS was made according to the following Instructions for Examiner (Maximum IRLSRS total score is 40).
The Examiner was instructed to have the patient rate his/her symptoms for the following ten questions. The patient and not the examiner made the ratings, but the examiner was available to clarify any misunderstandings the patient may have had about the questions. Either the examiner or the patient marked the answers on the form. In questions 1, 2, 4, 5, 6, 9 and 10, the following scoring was used: (4) Very severe; (3) Severe; (2) Moderate; (1) Mild; and (0) None.
Patients diagnosed with idiopathic RLS were withheld from the medication from the time of screening until the end of treatment. After tapering all RLS medications, patients were screened for eligibility. At Week −2, patients were admitted to the clinic on the night preceding the visit day to be adapted to the sleep environment of the laboratory. After screening, IRLSRS total score and total PLMS index of the patients were measured on Day −1 in order to establish a baseline and to assess the range of RLS fluctuation. Only patients with moderate to severe RLS (15 and more IRLSRS total scores) were enrolled in the study.
Treatment with Compound A (80 mg, once a day) began on the day following Day −1 visit and continued for the next 6 weeks. The last dose of Compound A was taken on the day of Week 6 visit. At Week 8, patients received RLS assessments (IRLSRS total score and total PLMS index). The inhibition ratio for each score was calculated by the following equation. Inhibition Ratio(%)={[(Score at Day−1)−(Score at Week 8)]/(Score at Day−1)}×100

parkinsonian monkeys = settings: Neurology, 52, 1673-1677 (1999); cited from earlier work
[3] = Week 8 vs Day-1 baseline, N = 4

SMILES | Amelioration of Parkinsonian symptoms [1] | IRLSRS Total Score, Inhibition Ratio [2, 3] [%] | Total PLMS Index, Inhibition Ratio [2, 3] [%] | IRLSRS Total Score, Week 8, mean (SD) ([2]; assessed at Week 8, N = 4, baseline (Day-1) 32.5 (4.39), maximum score 40) | Total PLMS Index, Week 8, mean (SD) ([2]; assessed at Week 8, N = 4, baseline (Day-1) 45 (15.41), periodic limb movements per hour of sleep) | Effect on RLS symptoms ([2]; patients with moderate to severe RLS) | Hyperactivity and dyskinesia (parkinsonian monkeys)
CCn1c(=O)c2c(nc(/C=C/c3ccc(OC)c(OC)c3)n2C)n(CC)c1=O [Compound A, (E)-8-(3,4-dimethoxystyryl)-1,3-diethyl-7-methylxanthine] | efficacious in ameliorating Parkinsonian symptoms | 29.2 | 45.2 | 23 (8.04) | 24.67 (23.89) | relief of RLS symptoms and improvement | –
CCn1c(=O)c2c(nc(/C=C/c3ccc(OC)c(OC)c3)n2C)n(CC)c1=O [KW-6002] | – | – | – | – | – | – | without producing hyperactivity and provoking dyskinesia
